From ChEMBL document CHEMBL4177611, “Discovery of aminocyclohexene analogues as selective and orally bioavailable hNav1.7 inhibitors for analgesia” (Bioorg Med Chem Lett, 2017)
Active and inactive are the calls of the source.

Columns and labels:
Rattus norvegicus [1] = assay: Antinociceptive activity in Sprague-Dawley rat formalin-induced nociception model assessed as inhibition of formalin-induced flinches in phase 2 at 30 mg/kg, po administered via oral gavage 60 mins before formalin challenge measured for 1 hr post dose; type: functional, organism-based
Rattus norvegicus [2] = assay: Antinociceptive activity in Sprague-Dawley rat formalin-induced nociception model assessed as inhibition of formalin-induced flinches in phase 1 at 30 mg/kg, po administered via oral gavage 60 mins before formalin challenge measured for 1 hr post dose; type: functional, organism-based
Rattus norvegicus [3] = assay: Antiallodynic activity in Sprague-Dawley rat spinal nerve ligation model assessed as reduction in mechanical allodynia by measuring paw withdrawal threshold at 100 mg/kg, po measured at 1 to 2 hrs post dose; type: functional, organism-based
Rattus norvegicus [4] = assay: Antiallodynic activity in Sprague-Dawley rat spinal nerve ligation model assessed as reduction in mechanical allodynia by measuring paw withdrawal threshold at 30 mg/kg, po measured at 1 to 2 hrs post dose; type: functional, organism-based
Homo sapiens [5] = species on record: Homo sapiens; assay: Selectivity ratio of IC50 for human Nav1.4 to IC50 for human Nav1.7 expressed in CHO-K1 cells; type: cell-based
Homo sapiens [6] = species on record: Homo sapiens; assay: Selectivity ratio of IC50 for human Nav1.5 expressed in HEK293 cells to IC50 for human Nav1.7 expressed in CHO-K1 cells; type: cell-based
[7] = Ratio of total drug level in iv dosed rat brain to plasma measured 2 hrs post dose; type: ADME, organism-based; conditions: read-out: BPR
[8] = Clearance in Sprague-Dawley rat administered as single iv bolus by LC-MS/MS analysis; type: ADME, organism-based; conditions: in vivo
[9] = Volume of distribution at steady state in Sprague-Dawley rat administered as single iv bolus by LC-MS/MS analysis; type: ADME, organism-based; conditions: in vivo, read-out: Vdss
[10] = AUC in Sprague-Dawley rat at 2 mg/kg administered as single dose via oral gavage by LC-MS/MS analysis; type: ADME, organism-based; conditions: in vivo
[11] = Initial plasma concentration in Sprague-Dawley rat at 0.5 mg/kg administered as single iv bolus by LC-MS/MS analysis; type: ADME, organism-based
[12] = Cmax in Sprague-Dawley rat at 2 mg/kg administered as single dose via oral gavage by LC-MS/MS analysis; type: ADME, organism-based; design: dose 2 mg/kg, route oral; conditions: in vivo
[13] = Half life in Sprague-Dawley rat at 2 mg/kg administered as single dose via oral gavage by LC-MS/MS analysis; type: ADME, organism-based; conditions: in vivo
Rattus norvegicus [14] = assay: Unbound AUC (0 to last) in Sprague-Dawley rat at 2 mg/kg administered as single dose via oral gavage by LC-MS/MS analysis; type: ADME, organism-based; conditions: in vivo
[15] = Dissociation constant, pKa of the compound; type: physicochemical
[16] = target: Sodium channel protein type 4 subunit alpha (Homo sapiens, UniProt P35499); type: ADME
[17] = Fraction unbound in human plasma at 2 uM after 4 hrs by LC-MS/MS analysis; type: ADME, cell-free
[18] = Fraction unbound in rat plasma at 2 uM after 4 hrs by LC-MS/MS analysis; type: ADME, cell-free
[19] = Drug level in po dosed rat plasma treated with 5-chloro-4-(((1R,6R)-6-(ethylamino)-2-(4-fluorophenyl)cyclohex-2-enyl)methoxy)-2-fluoro-N-(thiazol-4-yl)benzenesulfonamide; type: ADME, organism-based; conditions: in vivo
[20] = Volume of distribution at steady state in Sprague-Dawley rat at 3 mg/kg administered as single iv bolus by LC-MS/MS analysis; type: ADME, organism-based; conditions: in vivo, read-out: Vdss
[21] = target: Sodium channel protein type 9 subunit alpha (Homo sapiens, UniProt Q15858); assay: Inhibition of human Nav1.7 expressed in CHO-K1 cells at -120 mV holding potential incubated over 5 mins measured at 15 secs interval by Qpatch clamp assay; type: cell-based
[22] = AUC in Sprague-Dawley rat at 10 mg/kg administered as single dose via oral gavage by LC-MS/MS analysis; type: ADME, organism-based; conditions: in vivo
[23] = Oral bioavailability in Sprague-Dawley rat at 10 mg/kg administered as single dose via gavage by LC-MS/MS analysis; type: ADME, organism-based; conditions: in vivo
[24] = Initial plasma concentration in Sprague-Dawley rat at 3 mg/kg administered as single iv bolus by LC-MS/MS analysis; type: ADME, organism-based
[25] = Half life in Sprague-Dawley rat at 3 mg/kg administered as single iv bolus by LC-MS/MS analysis; type: ADME, organism-based; conditions: in vivo
[26] = Clearance in Sprague-Dawley rat at 3 mg/kg administered as single iv bolus by LC-MS/MS analysis; type: ADME, organism-based; conditions: in vivo
[27] = AUC (0 to last) in Sprague-Dawley rat at 3 mg/kg administered as single iv bolus by LC-MS/MS analysis; type: ADME, organism-based; design: dose 3 mg/kg, route intravenous, time 0 - last; conditions: in vivo
[28] = Cmax in Sprague-Dawley rat at 10 mg/kg administered as single dose via oral gavage by LC-MS/MS analysis; type: ADME, organism-based; design: dose 10 mg/kg, route oral; conditions: in vivo
[29] = Tmax in Sprague-Dawley rat at 10 mg/kg administered as single dose via oral gavage by LC-MS/MS analysis; type: ADME, organism-based; conditions: in vivo
[30] = Half life in Sprague-Dawley rat at 10 mg/kg administered as single dose via oral gavage by LC-MS/MS analysis; type: ADME, organism-based; conditions: in vivo
[31] = AUC (0 to last) in Sprague-Dawley rat at 10 mg/kg administered as single dose via oral gavage by LC-MS/MS analysis; type: ADME, organism-based; design: dose 10 mg/kg, route oral, time 0 - last; conditions: in vivo
Rattus norvegicus [32] = assay: Unbound AUC (0 to last) in Sprague-Dawley rat at 10 mg/kg administered as single dose via oral gavage by LC-MS/MS analysis; type: ADME, organism-based; conditions: in vivo
[33] = target: Sodium channel protein type 5 subunit alpha (Homo sapiens, UniProt Q14524); assay: Inhibition of human Nav1.5 expressed in HEK293 cells at -120 mV holding potential incubated over 5 mins measured at 15 secs interval by Qpatch clamp assay; type: cell-based
[34] = Intrinsic clearance in human liver microsomes at 1 uM after 60 mins in presence of NADPH by LC-MS/MS analysis; type: ADME, microsome; conditions: read-out: CLH
[35] = Intrinsic clearance in rat liver microsomes at 1 uM after 60 mins in presence of NADPH by LC-MS/MS analysis; type: ADME, microsome; conditions: read-out: CLH
Rattus norvegicus [36] = assay: Antiallodynic activity in Sprague-Dawley rat spinal nerve ligation model assessed as reduction in mechanical allodynia by measuring paw withdrawal threshold at 100 mg/kg, po measured at 2 hrs post dose; type: functional, organism-based
[37] = Plasma concentration in Sprague-Dawley rat spinal nerve ligation model at 100 mg/kg administered as single dose via oral gavage measured after 1 hr by LC-MS/MS analysis; type: ADME, organism-based
[38] = Plasma concentration in Sprague-Dawley rat spinal nerve ligation model at 100 mg/kg administered as single dose via oral gavage measured after 2 hrs by LC-MS/MS analysis; type: ADME, organism-based
[39] = Plasma concentration in Sprague-Dawley rat spinal nerve ligation model at 100 mg/kg administered as single dose via oral gavage measured after 4 hrs by LC-MS/MS analysis; type: ADME, organism-based
[40] = Unbound plasma concentration in Sprague-Dawley rat spinal nerve ligation model at 100 mg/kg administered as single dose via oral gavage measured after 1 hr by LC-MS/MS analysis; type: ADME, organism-based; conditions: in vivo
[41] = Unbound plasma concentration in Sprague-Dawley rat spinal nerve ligation model at 100 mg/kg administered as single dose via oral gavage measured after 2 hrs by LC-MS/MS analysis; type: ADME, organism-based; conditions: in vivo
[42] = Unbound plasma concentration in Sprague-Dawley rat spinal nerve ligation model at 100 mg/kg administered as single dose via oral gavage measured after 4 hrs by LC-MS/MS analysis; type: ADME, organism-based; conditions: in vivo
[43] = Drug uptake in Sprague-Dawley rat dorsal root ganglion at 100 mg/kg, ig measured after 2.5 hrs by LC-MS/MS analysis; type: ADME, organism-based; conditions: in vivo, po
Cytochrome P450 1A2 = target: T1, Cytochrome P450 1A2 (Homo sapiens, UniProt P05177)
T1 sequence (P05177 whole entry): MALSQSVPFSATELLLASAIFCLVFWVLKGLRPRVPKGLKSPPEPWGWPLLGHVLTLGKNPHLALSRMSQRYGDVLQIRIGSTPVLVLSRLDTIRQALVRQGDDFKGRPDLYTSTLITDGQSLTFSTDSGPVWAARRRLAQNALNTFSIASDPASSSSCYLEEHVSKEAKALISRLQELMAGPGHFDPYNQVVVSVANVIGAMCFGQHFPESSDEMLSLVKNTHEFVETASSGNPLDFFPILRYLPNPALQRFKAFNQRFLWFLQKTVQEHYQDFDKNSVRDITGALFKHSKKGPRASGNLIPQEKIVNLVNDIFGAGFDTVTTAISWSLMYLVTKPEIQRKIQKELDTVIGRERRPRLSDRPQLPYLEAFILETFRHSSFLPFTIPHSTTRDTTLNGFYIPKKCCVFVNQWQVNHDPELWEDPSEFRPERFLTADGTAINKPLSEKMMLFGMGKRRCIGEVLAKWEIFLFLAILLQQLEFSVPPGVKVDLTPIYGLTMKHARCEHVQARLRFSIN

Cytochrome P450 2C9 = Cytochrome P450 2C9 (Homo sapiens, UniProt P11712)
Cytochrome P450 2C19 = Cytochrome P450 2C19 (Homo sapiens, UniProt P33261)
Cytochrome P450 2D6 = Cytochrome P450 2D6 (Homo sapiens, UniProt P10635)
Cytochrome P450 3A4 = Cytochrome P450 3A4 (Homo sapiens, UniProt P08684)
[44] = target: Voltage-gated inwardly rectifying potassium channel KCNH2 (Homo sapiens, UniProt Q12809)
in vitro [45] = conditions: human, Caco-2
in vitro [46] = conditions: human, Caco-2; remark: listed apart in the source
physchem [47] = conditions: buffer, pH 7.4
physchem [48] = conditions: buffer, pH 7.4; remark: listed apart in the source

Sequence of Sodium channel protein type 4 subunit alpha (P35499 whole entry): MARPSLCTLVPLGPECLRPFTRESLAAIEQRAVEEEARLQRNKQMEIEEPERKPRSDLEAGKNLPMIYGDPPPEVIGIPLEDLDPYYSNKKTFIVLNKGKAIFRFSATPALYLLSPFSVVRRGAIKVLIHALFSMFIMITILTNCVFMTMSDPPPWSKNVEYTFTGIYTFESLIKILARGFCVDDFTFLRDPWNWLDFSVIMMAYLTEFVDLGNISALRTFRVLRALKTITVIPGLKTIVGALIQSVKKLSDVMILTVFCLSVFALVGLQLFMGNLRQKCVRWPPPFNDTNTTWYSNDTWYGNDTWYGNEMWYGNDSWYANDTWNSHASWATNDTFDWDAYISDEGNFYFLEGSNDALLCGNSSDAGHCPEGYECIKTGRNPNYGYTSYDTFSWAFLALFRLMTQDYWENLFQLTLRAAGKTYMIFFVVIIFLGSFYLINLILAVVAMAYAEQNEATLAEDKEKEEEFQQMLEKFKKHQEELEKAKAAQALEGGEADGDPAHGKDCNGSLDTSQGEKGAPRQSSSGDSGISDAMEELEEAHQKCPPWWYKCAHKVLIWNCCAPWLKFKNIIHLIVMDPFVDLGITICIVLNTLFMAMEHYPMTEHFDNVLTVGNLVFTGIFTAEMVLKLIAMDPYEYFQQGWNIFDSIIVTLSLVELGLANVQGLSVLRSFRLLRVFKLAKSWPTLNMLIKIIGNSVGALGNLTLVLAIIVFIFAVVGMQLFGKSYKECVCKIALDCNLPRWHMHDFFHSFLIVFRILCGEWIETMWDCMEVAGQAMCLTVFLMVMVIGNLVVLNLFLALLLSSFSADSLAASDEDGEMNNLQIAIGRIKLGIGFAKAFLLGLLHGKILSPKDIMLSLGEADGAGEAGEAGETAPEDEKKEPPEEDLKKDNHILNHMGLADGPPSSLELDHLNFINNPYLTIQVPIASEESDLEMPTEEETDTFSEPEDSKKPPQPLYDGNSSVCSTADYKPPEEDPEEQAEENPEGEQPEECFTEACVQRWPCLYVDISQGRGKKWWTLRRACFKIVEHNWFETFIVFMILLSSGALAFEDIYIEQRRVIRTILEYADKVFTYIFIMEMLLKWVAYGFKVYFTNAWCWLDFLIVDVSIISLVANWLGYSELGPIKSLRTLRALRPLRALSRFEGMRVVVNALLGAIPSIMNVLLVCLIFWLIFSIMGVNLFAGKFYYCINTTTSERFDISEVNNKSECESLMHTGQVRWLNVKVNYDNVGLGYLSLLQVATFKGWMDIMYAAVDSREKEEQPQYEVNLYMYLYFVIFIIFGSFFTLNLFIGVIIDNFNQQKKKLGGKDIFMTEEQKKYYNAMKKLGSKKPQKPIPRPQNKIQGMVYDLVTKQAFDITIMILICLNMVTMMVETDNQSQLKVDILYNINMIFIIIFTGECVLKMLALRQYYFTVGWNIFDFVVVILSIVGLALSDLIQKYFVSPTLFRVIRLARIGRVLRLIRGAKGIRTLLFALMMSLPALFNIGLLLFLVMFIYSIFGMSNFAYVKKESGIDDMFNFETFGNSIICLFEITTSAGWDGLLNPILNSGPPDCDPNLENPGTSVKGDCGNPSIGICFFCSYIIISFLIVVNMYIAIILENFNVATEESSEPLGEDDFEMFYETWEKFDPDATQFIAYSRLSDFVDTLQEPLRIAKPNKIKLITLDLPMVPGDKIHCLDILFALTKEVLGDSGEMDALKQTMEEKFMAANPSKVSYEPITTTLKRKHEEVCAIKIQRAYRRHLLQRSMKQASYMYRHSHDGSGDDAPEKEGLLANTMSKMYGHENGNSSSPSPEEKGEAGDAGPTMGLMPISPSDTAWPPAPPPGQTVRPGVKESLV
Sequence of Voltage-gated inwardly rectifying potassium channel KCNH2 (Q12809 whole entry): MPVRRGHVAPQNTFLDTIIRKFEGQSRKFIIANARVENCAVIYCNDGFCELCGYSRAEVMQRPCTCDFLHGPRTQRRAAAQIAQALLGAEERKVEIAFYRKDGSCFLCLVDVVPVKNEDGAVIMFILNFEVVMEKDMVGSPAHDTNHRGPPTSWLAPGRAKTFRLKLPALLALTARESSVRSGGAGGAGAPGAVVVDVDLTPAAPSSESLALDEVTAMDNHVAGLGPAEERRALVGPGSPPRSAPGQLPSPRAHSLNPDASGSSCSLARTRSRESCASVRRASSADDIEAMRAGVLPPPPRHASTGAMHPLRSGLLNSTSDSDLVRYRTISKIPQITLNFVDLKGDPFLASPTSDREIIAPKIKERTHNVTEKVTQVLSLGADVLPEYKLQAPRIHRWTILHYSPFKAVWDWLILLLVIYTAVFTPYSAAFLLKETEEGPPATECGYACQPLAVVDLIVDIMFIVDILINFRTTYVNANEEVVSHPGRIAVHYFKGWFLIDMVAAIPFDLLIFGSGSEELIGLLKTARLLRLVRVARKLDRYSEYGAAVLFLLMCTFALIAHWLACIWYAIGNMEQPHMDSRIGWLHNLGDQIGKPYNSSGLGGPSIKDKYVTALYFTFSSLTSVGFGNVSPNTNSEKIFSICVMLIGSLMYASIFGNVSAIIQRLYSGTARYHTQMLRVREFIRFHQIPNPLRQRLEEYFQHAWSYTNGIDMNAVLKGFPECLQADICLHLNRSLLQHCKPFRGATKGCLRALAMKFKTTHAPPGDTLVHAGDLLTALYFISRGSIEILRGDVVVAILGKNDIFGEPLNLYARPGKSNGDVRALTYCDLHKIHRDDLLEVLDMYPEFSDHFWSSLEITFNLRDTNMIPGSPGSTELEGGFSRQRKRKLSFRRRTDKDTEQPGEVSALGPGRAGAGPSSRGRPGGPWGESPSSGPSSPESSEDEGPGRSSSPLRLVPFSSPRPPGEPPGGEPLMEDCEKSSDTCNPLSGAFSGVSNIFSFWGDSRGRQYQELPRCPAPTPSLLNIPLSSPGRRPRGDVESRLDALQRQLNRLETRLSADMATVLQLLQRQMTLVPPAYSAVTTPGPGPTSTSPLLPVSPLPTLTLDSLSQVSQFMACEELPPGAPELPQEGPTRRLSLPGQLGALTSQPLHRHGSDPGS
Sequence of Cytochrome P450 2C19 (P33261 whole entry): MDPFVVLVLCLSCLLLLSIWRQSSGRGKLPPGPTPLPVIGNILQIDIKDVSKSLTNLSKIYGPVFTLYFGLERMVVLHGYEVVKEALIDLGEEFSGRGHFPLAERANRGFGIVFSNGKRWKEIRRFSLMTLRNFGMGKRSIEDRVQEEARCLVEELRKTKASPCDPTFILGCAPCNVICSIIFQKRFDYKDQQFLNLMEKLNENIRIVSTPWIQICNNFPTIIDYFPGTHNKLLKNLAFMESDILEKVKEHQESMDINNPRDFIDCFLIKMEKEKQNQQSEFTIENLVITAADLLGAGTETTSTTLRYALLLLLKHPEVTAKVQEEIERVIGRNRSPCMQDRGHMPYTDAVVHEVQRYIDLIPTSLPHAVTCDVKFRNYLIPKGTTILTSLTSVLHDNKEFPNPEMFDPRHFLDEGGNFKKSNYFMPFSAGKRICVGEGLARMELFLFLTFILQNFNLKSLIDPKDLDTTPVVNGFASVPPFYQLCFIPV
Sequence of Cytochrome P450 2D6 (P10635 whole entry): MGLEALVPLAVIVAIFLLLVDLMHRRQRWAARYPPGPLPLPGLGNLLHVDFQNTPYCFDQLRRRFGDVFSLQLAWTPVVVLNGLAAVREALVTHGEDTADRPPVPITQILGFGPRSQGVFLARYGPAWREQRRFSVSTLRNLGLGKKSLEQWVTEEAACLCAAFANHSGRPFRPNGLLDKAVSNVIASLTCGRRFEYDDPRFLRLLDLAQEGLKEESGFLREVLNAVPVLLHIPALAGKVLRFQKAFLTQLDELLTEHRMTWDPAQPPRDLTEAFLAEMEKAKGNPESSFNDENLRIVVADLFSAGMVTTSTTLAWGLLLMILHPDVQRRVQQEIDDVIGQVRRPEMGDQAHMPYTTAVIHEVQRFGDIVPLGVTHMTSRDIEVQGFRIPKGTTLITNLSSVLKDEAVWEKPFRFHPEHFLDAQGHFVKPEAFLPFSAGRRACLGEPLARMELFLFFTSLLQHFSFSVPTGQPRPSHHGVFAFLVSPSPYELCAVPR
Sequence of Cytochrome P450 3A4 (P08684 whole entry): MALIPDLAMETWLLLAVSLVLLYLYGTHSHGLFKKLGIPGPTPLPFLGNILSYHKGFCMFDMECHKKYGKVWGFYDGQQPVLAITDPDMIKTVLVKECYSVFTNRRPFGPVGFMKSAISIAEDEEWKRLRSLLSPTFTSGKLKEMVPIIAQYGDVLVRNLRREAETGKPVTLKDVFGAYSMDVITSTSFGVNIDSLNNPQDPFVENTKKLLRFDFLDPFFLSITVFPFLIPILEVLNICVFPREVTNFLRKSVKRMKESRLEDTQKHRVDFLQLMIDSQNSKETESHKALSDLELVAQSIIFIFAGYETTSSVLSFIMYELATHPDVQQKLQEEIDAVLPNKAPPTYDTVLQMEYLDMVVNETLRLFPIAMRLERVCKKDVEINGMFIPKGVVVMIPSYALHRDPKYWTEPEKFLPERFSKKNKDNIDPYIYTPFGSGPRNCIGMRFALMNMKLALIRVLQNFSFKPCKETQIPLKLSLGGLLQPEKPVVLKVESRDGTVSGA
Sequence of Cytochrome P450 2C9 (P11712 whole entry): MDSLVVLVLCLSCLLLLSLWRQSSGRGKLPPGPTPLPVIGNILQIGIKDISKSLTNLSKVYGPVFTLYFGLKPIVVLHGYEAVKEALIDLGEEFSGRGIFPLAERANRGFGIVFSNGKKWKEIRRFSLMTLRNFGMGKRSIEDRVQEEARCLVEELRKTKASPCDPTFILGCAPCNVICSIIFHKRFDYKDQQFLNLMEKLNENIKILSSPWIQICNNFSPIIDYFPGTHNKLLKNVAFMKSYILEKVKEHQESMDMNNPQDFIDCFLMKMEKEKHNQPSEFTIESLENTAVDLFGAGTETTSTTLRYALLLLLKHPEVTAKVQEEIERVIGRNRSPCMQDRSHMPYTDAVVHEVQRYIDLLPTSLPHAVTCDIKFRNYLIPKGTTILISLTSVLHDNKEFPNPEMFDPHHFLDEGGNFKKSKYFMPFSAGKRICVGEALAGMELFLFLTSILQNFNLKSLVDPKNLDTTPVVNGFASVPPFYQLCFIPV

CCN[C@@H]1CCC=C(c2ccc(F)cc2)[C@H]1COc1cc(F)c(S(=O)(=O)Nc2cscn2)cc1Cl
inhibition (Rattus norvegicus [1]): Active | inhibition (Rattus norvegicus [2]): inactive | Activity (Rattus norvegicus [3]): Active | Activity (Rattus norvegicus [4]): inactive | Ratio IC50 (Homo sapiens [5]): > 30 | Ratio IC50 (Homo sapiens [6]): > 30

N[C@@H]1CCC=C(c2ccc(F)cc2)[C@H]1COc1cc(F)c(S(=O)(=O)Nc2cscn2)cc1Cl
Kp at 2 h [7]: 0.13 | clearance [8]: 39 to 39.2 mL/min/kg | Vd [9]: 8.91 L/kg | AUC [10]: 0.25 µM·h | C0 [11]: 410 nM | Cmax [12]: 50 nM | half-life [13]: 2.74 h | fAUClast (Rattus norvegicus [14]): 0.005 µM·h | pKa [15]: 6.13 to 9.05 | IC50 [16]: 4 µM | fraction unbound at 4 h, 2 µM [17]: 0.008 | fraction unbound at 4 h, 2 µM [18]: 0.02 | Drug uptake [19]: Active

Cl.N[C@@H]1CCC=C(c2ccc(F)cc2)[C@H]1CNc1cc(F)c(S(=O)(=O)Nc2cscn2)cc1Cl
Vd [20]: 5.77 L/kg | IC50 [21]: 0.088 µM | clearance [8]: 19.8 mL/min/kg | Vd [9]: 5.77 L/kg | AUC [22]: 4.86 µM·h | bioavailability [23]: 30% | C0 [24]: 2800 nM | half-life [25]: 3.64 h | clearance [26]: 19.8 mL/min/kg | AUC(0-t) [27]: 4.92 µM·h | Cmax [28]: 660 nM | Tmax [29]: 2.67 h | half-life [30]: 3.39 h | AUC(0-t) [31]: 4.86 µM·h | fAUClast (Rattus norvegicus [32]): 0.141 µM·h | pKa [15]: 7.09 to 9.18 | IC50 [33]: 4.02 µM | IC50 [16]: 2.9 µM | fraction unbound at 4 h, 2 µM [17]: 0.004 | fraction unbound at 4 h, 2 µM [18]: 0.029 | CLint scaled at 1 µM [34]: 17.5 mL/min/kg | CLint scaled at 1 µM [35]: 30.4 mL/min/kg | inhibition (Rattus norvegicus [1]): Active | inhibition (Rattus norvegicus [2]): inactive | Activity (Rattus norvegicus [36]): Active | concentration at 1 h [37]: 3740 nM | concentration at 2 h [38]: 3820 nM | concentration at 4 h [39]: 3160 nM | Cp(f) [40]: 108 nM | Cp(f) [41]: 110 nM | Cp(f) [42]: 91 nM | Drug uptake [43]: 3.1 µM/g | Ratio IC50 (Homo sapiens [5]): > 30 | Ratio IC50 (Homo sapiens [6]): > 30 | IC50 (Cytochrome P450 1A2): > 50 µM | IC50 (Cytochrome P450 2C9): 11.8 µM | IC50 (Cytochrome P450 2C19): 26.2 µM | IC50 (Cytochrome P450 2D6): 3 µM | IC50 (Cytochrome P450 3A4): 33 µM | IC50 [44]: 4.6 µM | Papp A→B at 2 h, 2 µM (in vitro [45]): 0.04 ×10⁻⁶ cm/s | efflux ratio at 2 h, 2 µM (in vitro [46]): 251 | logD (physchem [47]): 1.5 | solubility thermodynamic (physchem [48]): 135 µM
